Measurements: patent US8710246B2, “Substituted thiophene pentamers” (Biochromix Newco AB, priority 2008, dated 2014)
Entries after “also recorded” stand apart in the source; their conditions may differ.

Tests used:
hAPPSL transgenic mice = experiment: 30 days treatment, Morris Water Maze (MWM) test; type: in vivo; settings: 10 mg/kg, ip 30 days, treatment days 24 to 27
Description: Starting at 8 months of age, female hAPPSL mice were treated with vehicle only or p-FTAA in 3 dosages for 30 days. The Test Item (T.I.) p-FTAA was administered in 3 dosages in Vehicle. 48 hAPP Tg mice plus 4 reserves allocated to 4 different treatment groups were treated with either vehicle only (control) or with p-FTAA in dosages of 0.1 mg/kg/day, 1 mg/kg/day, or 10 mg/kg/day. As an additional control, 12 nTg littermates of the hAPPSL mice (plus 1 reserve) were treated with vehicle only. Vehicle and T.I.s were administered twice daily intra peritoneal (i.p.) for 30 days.
The MWM was performed during 4 days at the end of treatment period (treatment days 24 to 27). […]
The escape latency (the time needed to find the hidden platform and therefore to escape from the water), the swimming path (the length to reach the target), the swimming speed and in the probe trial crossings over the former platform position and the abidance in the target quadrant were evaluated. […]
Descriptive statistical analysis was performed on all evaluated parameters. […] Group differences were calculated by a parametric ANOVA followed by a Bonferroni post test or by a non-parametric Kruskal Wallis ANOVA followed by a Dunn's post test if Gaussian distribution was missing. Learning curves were evaluated by a Two-way ANOVA followed by a Bonferroni post test. […]

Aβ38, Aβ40 or Aβ42 = experiment: 14 days treatment, DEA extraction of soluble amyloid beta from brain homogenates; type: in vivo; settings: data not shown
Description: We also noted, data not shown, that p-FTAA treatment for 14 days, in 4 months old female […] transgenic mice, led to decreased Aβ38, Aβ40 or Aβ42 levels in the DEA Extraction of [soluble] Amyloid beta from brain homogenates.

[1] = 14 days treatment, biodistribution by HPLC-MS/MS; type: in vivo, mice
Description: Starting at 4 months of age, female hAPPSL mice were treated with vehicle only or p-FTAA in 3 dosages for 14 days. 40 hAPP Tg mice plus 4 reserves allocated to 4 different treatment groups were treated with either vehicle only (control) or with p-FTAA in dosages of 0.1 mg/kg/day, 1 mg/kg/day, or 10 mg/kg/day. Vehicle and T.I.s were administered twice daily intra peritoneal (ip) for 14 days.
The biodistribution of p-FTAA in the mice was assessed by determining the parent compound in the right brain hemisphere (without cerebellum), liver, kidney, and plasma of the treated animals. p-FTAA was determined in all the matrices by different bioanalytical methods involving HPLC-MS/MS. Each method was characterized in terms of specificity, linearity, accuracy and precision in order to give reliable results.
Tissue Sampling: After the last treatment, animals were sacrificed. Each treatment group was divided in 3 sampling points resulting in 3-4 animals per sampling point per group (time points below refer to the time point of CSF sampling):
1) Immediately before last dosing on day 14 (predose)
2) 0.5 hours after last dosing on day 14
3) 3 hours after last dosing on day 14
From each animal, CSF, blood, brains, liver, and kidney were collected. Therefore, mice were sedated by standard inhalation anesthesia (Isofluran, Baxter)

Aβ peptide 1-42 = molecular target: T1, Aβ peptide 1-42 (Homo sapiens, UniProt P05067); experiment: In vitro fibrillation of Aβ peptide 1-42 followed by TEM; type: biochemical; settings: for fibrillation morphology by TEM: 100 μM compound, 20 μM Aβ 1-42, 37° C.
T1 construct: Aβ peptide 1-42 was dissolved in hexafluoroisopropanol
T1 sequence (P05067 672-713 limits assumed): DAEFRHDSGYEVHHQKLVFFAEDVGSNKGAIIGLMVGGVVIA
Description: Aβ peptide 1-42 was dissolved in hexafluoroisopropanol to a concentration of 1 mg/mL and further diluted to 20 μM in Tris-HCl 5 mM, 75 mM NaCl. The inventive compounds F and G were added in concentrations from 10 to 100 μM and the samples, including references without the inventive compounds, were incubated at 37° C. to initiate fibrillation. After Oh, 20 h and 66 h aliquots were withdrawn, deposited on formvar-carbon coated TEM grids and negatively stained using uranylacetate. A Phillips CM200 run at 200 kV was used to study the progress of fibrillation in the different samples. […] (at Oh). […] These aggregates were covering most of the TEM grid and no smaller fibril or oligomer like structures could be seen. After 66 h of incubation no major change in morphology compared to the 20 h samples could be seen, sheets with separate visible fibrils were found at high density on the grid, of a typical morphology illustrated in FIG. 3.

O=C(O)Cc1cc(-c2ccc(C(=O)O)s2)sc1-c1ccc(-c2sc(-c3ccc(C(=O)O)s3)cc2CC(=O)O)s1 [Compound F]
MWM performance in terms of the swimming path (hAPPSL transgenic mice): better performance than any other Tg group | Aβ38, Aβ40 or Aβ42 levels in DEA extraction of soluble amyloid beta from brain homogenates (Aβ38, Aβ40 or Aβ42; 4 months old female hAPPSL mice): decreased | dose group with the strongest effect on DEA soluble Aβ (Aβ38, Aβ40 or Aβ42): strongest for 10 mg/kg/day group | systemic exposure ([1]; 0.1, 1, 10 mg/kg/day ip for 14 days, plasma): exposed systemically to p-FTAA at all dose levels | crossing of the blood-brain barrier (brain levels) ([1]; after ip administration, 14 days): crossed the blood-brain barrier | elimination route suggested by tissue levels ([1]; ip, 14 days): urinary excretion is the main elimination route | exposure in the liver and in the kidney ([1]; ip, 14 days): Significant exposure | levels in kidney compared to liver ([1]; ip, 14 days): higher in the kidney compared to the liver | fibrillation morphology by TEM (Aβ peptide 1-42; 20 h): no dense aggregates resembling those in the reference sample | fibrillation morphology by TEM (Aβ peptide 1-42; 66 h): no separate fibrils could be found; also recorded: dense aggregates where no fibrils can be seen | effect on the fibrillation of Aβ peptide 1-42 (Aβ peptide 1-42; overall conclusion, 20 h and 66 h): major effect
